The numbers were not newly measured in patent US8569299B2, “Prolylcarboxypeptidase inhibitors” (Merck Sharp & Dohme Corp, priority 2010, dated 2013), which cites them from elsewhere.

Like-named read-outs stand apart in the source and are kept apart here. Where no end group is shown, it is not given here.

The conditions of series [1]: in vivo.
For series [2] the following is noted: intracerebroventricular, rats.
The conditions of series [3]: systemic administration, obese leptin deficient mice.
The conditions of series [4]: overnight fasted animals, 2.5 ug.

In the case of `CCN[C@@H](C)Cc1cccc(C(F)(F)F)c1` [dexfenfluramine], in series [1], the “weight loss of body weight for drug compared to placebo” value (“weight loss … compared to placebo” below) was 5%-10%.

With `CC(C)(N)Cc1ccccc1` [phentermine], the “weight loss … compared to placebo” value in series [1] is listed as 5%-10%.

As to t-butyl carbamate-prolyl prolinal [BPP], the overnight food intake result in series [2] and in series [3] was “suppression of overnight food intake” throughout.

For the compound “alpha-melanocyte-stimulating hormone (SYSMEHFRWGKPV; ends and bridges not checked; UniProt P01189 138-150, looked up) [α-MSH1-13, peptide hormone derived from POMC, substrate of PRCP]”, in series [4], the “reduction in food intake relative to control animals” value is 40%.

In the case of `CC(C)CC(N(C)C)C1(c2ccc(Cl)cc2)CCC1` (stereo not shown) [sibutramine], the “weight loss … compared to placebo” value in series [1] is 5%-10%.

Take `CCCCCCCCCCC[C@@H](C[C@@H]1OC(=O)[C@H]1CCCCCC)OC(=O)[C@H](CC(C)C)NC=O` [orlistat]: the “weight loss … compared to placebo” value in series [1] is on record as 5%-10%.
